# Experiments:
# Ba/F3 = assay: Cell proliferation inhibition, Cell Titer-Glo, Ba/F3; format: cell-based; settings: Mus musculus, BaF3; cell proliferation assay, Ba/F3 cells
# Description: (§1) IGF1R and other tyrosine kinase inhibitors can inhibit the proliferation of certain cancer cell lines indicating their possible therapeutic utility for treating the corresponding cancer types. Cancer cell lines of interest and control normal lines, including CHO, HEK293, BA/F3, COLO205, PC3, DU145, MCF7, Panc1, ACHN, Hep G2, H460, K562, TT, U87-MG, CAOV-3, SK-MEL5, Karpas 299 and human multiple myeloma cell lines H929, MM1s, MM1r, UTMC2, CPM2, KMS11, My5, KMS12PE, My7, JJN3, KMS18, U266, SKMM2, RPMI-8226 are plated in white, clear-bottomed 384-well cell culture plates at 2500-5000 cells per well and supplied with dilutions of tested compounds After a desired period of time (typically 3 days), the number of viable cells is quantitated by using Cell Titer-Glo Luminescent Cell Viability Assay (Promega), a cell proliferation assay system based on detection of total amount of ATP present as a measure of cell metabolic activity. The plated cells are mixed with the Cell Titer-Glo developing reagent and counted in a luminescence multiwell plate reader according to the standard manufacturer's protocol to generate IC50 curves for cell proliferation inhibition. Results are typically reported as percent of growth (% viability =(OD72h(compound)−ODday0))/(OD72h(no compound)−ODday0). Alternatively, viable cells are quantitated by using the conventional colorimetric MTT assay. The MTT assay is based on the cleavage of the yellow tetrazolium salt MTT to purple formazan crystal by metabolic active cells. The formazan is then solubilized, and the concentration determined by optical density at 570 nm. The cells plated and incubated with a compound as described above are supplemented with the solution of MTT and incubated for 2-3 hours. The growth medium is removed and dimethyl sulfoxide is added into each well to dissolve the formazan. The absorbance is measured on an ELISA plate reader with a test wavelength of 570 nm and a background subtraction wavelength of 630 nm to obtain sample signal (OD570-OD630). […] The results are reported in terms of IC50 value for a particular compound and a cell line in the standard 3-day proliferation assay using Cell Titer-Glo. […] The results are reported in terms of IC50 value for a particular compound and a cell line in the standard 3-day proliferation assay using MTT assay.
# K562 = assay: Cell proliferation inhibition, Cell Titer-Glo, K562; format: cell-based; settings: Homo sapiens; cell proliferation assay, K562 cells
# Description: as §1
# IGF1R tyrosine kinase = target: T1, IGF1R tyrosine kinase (Homo sapiens, UniProt P08069); assay: IGF1R tyrosine kinase assay (Kinase-Glo ATP depletion or PT66/PT100 AlphaScreen); settings: biochemical tyrosine kinase assay
# T1 construct: 6×His- or GST-tagged kinase domain fragments of the corresponding RTKs expressed in baculovirus system; host or cells: baculovirus system
# Method: (§2) To determine inhibition of several tyrosine kinases, such as IGF1R, InsR, Alk, TrkA and Jak2, kinase assays are conducted using either Kinase-Glo (Promega) or AlphaScreen (PerkinElmer) kinase assay platforms. The Kinase-Glo Luminescent Kinase Assay is a homogeneous method for measuring kinase activity by determining the amount of ATP remaining after a kinase reaction. The luminescent signal is proportional to the amount of ATP and inversely proportional to the amount of kinase activity. Tyrosine kinase PT66 AlphaScreen Assay is a high-sensitivity homogeneous, anti-phosphotyrosine antibody-mediated luminescent proximity method measuring, incorporation of phosphate in synthetic poly(Glu-Tyr) substrate. The kinase preparations used consist of purified recombinant, 6×His- or GST-tagged kinase domain fragments of the corresponding RTKs expressed in baculovirus system.
# (§3) The IGF1R tyrosine kinase is assayed in Kinase-Glo ATP depletion assay using the synthetic polymer poly(Glu-Tyr, 4:1) (Sigma Chemicals) as a phosphoacceptor substrate. Each reaction mixture consists of a total volume of 10 μl and contains 40 ng of the enzyme, 5 μg of poly(Glu-Tyr), 10 μM of ATP and variable concentrations of test compounds. The mixtures also contain 50 mM Tris-HCl, pH 7.5; 5 mM MgCl2; 5 mM MnCl2; 2 mM DTT and 0.01% Tween 20. The reaction mixtures are incubated at 37° C. for 60 minutes and residual concentration of ATP in the mixture is determined by adding luciferase-containing Kinase-Glo (Promega) development reagent and counting luminescence levels using Fusion Universal Microplate Analyzer (PerkinElmer). Tested compounds are dissolved in dimethyl sulfoxide to a stock concentration of 10 mM and are typically evaluated in the assay at eight concentrations in 1 nM to 20 μM range, each in quadruplicate. […] IC50 values are derived by non-linear regression analysis using Prism 3.0 software (Graphpad Software). Other tyrosine kinases are assayed according to the same protocol after titrating amount of the enzyme to provide optimal signal-to-noise ratio and no more than 30% of total ATP consumption in the reaction conditions used.
# (§4) The IGF1R tyrosine kinase is assayed in Phosphotyrosine (PT66 or PT 100) AlphaScreen chemiluminescent assay (PerkinElmer) according to the manufacturerer's recommendations. Each kinase reaction mixture consists of a total volume of 15 μl and contains 0.1-1 ng of the enzyme, 7 ng of biotinylated poly(Glu-Tyr) (Cis-Bio), 10 μM of ATP and variable concentrations of test compounds. The mixtures also contain 50 mM Tris-HCl, pH 7.5; 5 mM MgCl2; 5 mM MnCl2; 2 mM DTT and 0.01% Tween 20. The reaction mixtures are incubated at room temperature for 30 minutes. Ten (10) μl of the mixture of […] and donor beads (as supplied by the manufacturer) is then added to the reaction and the incubation is continued for an additional 60 minutes.
# InsR = target: T2, InsR (Homo sapiens, UniProt P06213); assay: Tyrosine kinase assay (Kinase-Glo or AlphaScreen), InsR; settings: biochemical tyrosine kinase assay
# T2 construct: 6×His- or GST-tagged kinase domain fragments of the corresponding RTKs expressed in baculovirus system; host or cells: baculovirus system
# Method: as §2, §3, §4
# Jak2 = target: T3, Jak2 (Homo sapiens, UniProt O60674); assay: Tyrosine kinase assay (Kinase-Glo or AlphaScreen), Jak2; settings: biochemical tyrosine kinase assay
# T3 construct: 6×His- or GST-tagged kinase domain fragments of the corresponding RTKs expressed in baculovirus system; host or cells: baculovirus system
# Method: as §2, §3, §4
# Alk = target: T4, Alk (Homo sapiens, UniProt Q9UM73); assay: Tyrosine kinase assay (Kinase-Glo or AlphaScreen), Alk; settings: biochemical tyrosine kinase assay
# T4 construct: 6×His- or GST-tagged kinase domain fragments of the corresponding RTKs expressed in baculovirus system; host or cells: baculovirus system
# Method: as §2, §3, §4
# Karpas-299 = assay: Cell proliferation inhibition, Cell Titer-Glo, Karpas-299; format: cell-based; settings: Homo sapiens; cell proliferation assay, Karpas-299 cells
# Description: as §1
# T3 sequence (O60674 849-1124 limits assumed, species assumed): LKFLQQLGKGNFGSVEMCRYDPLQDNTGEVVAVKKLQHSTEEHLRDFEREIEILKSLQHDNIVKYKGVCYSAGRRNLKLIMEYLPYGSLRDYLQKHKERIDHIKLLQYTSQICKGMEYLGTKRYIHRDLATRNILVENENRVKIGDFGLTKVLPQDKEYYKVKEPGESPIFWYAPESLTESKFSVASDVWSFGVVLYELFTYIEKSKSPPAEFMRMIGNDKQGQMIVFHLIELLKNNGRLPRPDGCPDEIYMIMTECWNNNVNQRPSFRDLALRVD
# T1 sequence (P08069 999-1274 limits assumed): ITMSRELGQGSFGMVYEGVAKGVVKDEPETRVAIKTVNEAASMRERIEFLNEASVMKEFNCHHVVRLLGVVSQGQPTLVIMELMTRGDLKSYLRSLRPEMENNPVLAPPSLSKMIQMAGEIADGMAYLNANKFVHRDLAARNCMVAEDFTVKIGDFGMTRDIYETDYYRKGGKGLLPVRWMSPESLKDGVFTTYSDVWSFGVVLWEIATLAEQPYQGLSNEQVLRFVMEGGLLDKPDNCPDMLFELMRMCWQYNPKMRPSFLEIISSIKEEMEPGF
# T4 sequence (Q9UM73 1116-1392 limits assumed, species assumed): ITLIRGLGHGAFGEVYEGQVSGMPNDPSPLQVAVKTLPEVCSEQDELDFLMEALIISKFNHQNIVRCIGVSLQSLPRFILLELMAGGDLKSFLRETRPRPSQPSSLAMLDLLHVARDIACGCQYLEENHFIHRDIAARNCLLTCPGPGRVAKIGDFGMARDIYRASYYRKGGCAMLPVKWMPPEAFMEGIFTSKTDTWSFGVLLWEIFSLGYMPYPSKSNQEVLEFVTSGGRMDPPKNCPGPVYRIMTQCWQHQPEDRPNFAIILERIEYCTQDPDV
# T2 sequence (P06213 1023-1298 limits assumed, species assumed): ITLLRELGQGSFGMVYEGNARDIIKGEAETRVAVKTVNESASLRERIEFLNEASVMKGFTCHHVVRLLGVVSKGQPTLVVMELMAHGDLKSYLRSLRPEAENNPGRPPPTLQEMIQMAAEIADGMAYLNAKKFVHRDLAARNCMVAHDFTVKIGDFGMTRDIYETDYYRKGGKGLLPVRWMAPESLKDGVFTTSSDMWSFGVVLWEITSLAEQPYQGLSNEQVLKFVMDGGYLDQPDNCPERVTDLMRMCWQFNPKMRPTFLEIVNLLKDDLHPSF
smiles,measurement,setting,value
CN1CCC(N2C(=O)c3cc4nc(-c5c(NC[C@@H](O)COc6cccnc6)ccnc5O)[nH]c4cc3C2=O)CC1 [compound 70],IC50,Ba/F3,> 15 µM
same,IC50,K562,> 15 µM
same,IC50,IGF1R tyrosine kinase,5 to 15 µM
same,IC50,InsR,5 to 15 µM
same,IC50,Jak2,0.5 to 5 µM
same,IC50,Alk,5 to 15 µM
same,IC50,Karpas-299,> 15 µM
COc1cc(C)ccc1OC[C@H](O)CNc1ccnc(O)c1-c1nc2cc3c(cc2[nH]1)C(=O)N(C1CCN(C)CC1)C3=O [compound 54],IC50,Ba/F3,5 to 15 µM
same,IC50,K562,5 to 15 µM
same,IC50,IGF1R tyrosine kinase,< 0.5 µM
same,IC50,InsR,0.5 to 5 µM
same,IC50,Jak2,> 15 µM
same,IC50,Alk,5 to 15 µM
same,IC50,Karpas-299,5 to 15 µM
Cc1ccc(OC[C@H](O)CNc2ccnc(O)c2-c2nc3cc4c(cc3[nH]2)C(=O)N([C@@H]2CCCN(C)C2)C4=O)c(C)c1 [compound 102],IC50,Ba/F3,> 15 µM
same,IC50,K562,> 15 µM
same,IC50,IGF1R tyrosine kinase,< 0.5 µM
same,IC50,InsR,5 to 15 µM
same,IC50,Jak2,> 15 µM
same,IC50,Alk,> 15 µM
same,IC50,Karpas-299,5 to 15 µM
CN1CCC(N2C(=O)c3cc4nc(-c5c(NN)ccnc5O)[nH]c4cc3C2=O)CC1 [compound 65],IC50,Ba/F3,> 15 µM
same,IC50,K562,> 15 µM
same,IC50,IGF1R tyrosine kinase,5 to 15 µM
same,IC50,InsR,5 to 15 µM
same,IC50,Jak2,5 to 15 µM
same,IC50,Alk,> 15 µM
same,IC50,Karpas-299,> 15 µM
Cc1c(Cl)cccc1OC[C@H](O)CNc1cc[nH]c(=O)c1-c1nc2cc3c(cc2[nH]1)C(=O)N(CC1CCN(CCO)CC1)C3=O [compound 119],IC50,Ba/F3,> 15 µM
same,IC50,K562,> 15 µM
same,IC50,IGF1R tyrosine kinase,< 0.5 µM
same,IC50,InsR,< 0.5 µM
same,IC50,Jak2,0.5 to 5 µM
same,IC50,Alk,0.5 to 5 µM
same,IC50,Karpas-299,> 15 µM
Cc1ccc(OC[C@H](O)CNc2ccnc(O)c2-c2nc3cc4c(cc3[nH]2)C(=O)N(C2CCN(C)CC2)C4=O)cn1 [compound 69],IC50,Ba/F3,> 15 µM
same,IC50,K562,> 15 µM
same,IC50,IGF1R tyrosine kinase,0.5 to 5 µM
same,IC50,InsR,0.5 to 5 µM
same,IC50,Jak2,0.5 to 5 µM
same,IC50,Alk,5 to 15 µM
same,IC50,Karpas-299,> 15 µM
CN1CCC(N2C(=O)c3cc4nc(-c5c(NC[C@@H](O)COc6cccc(Br)c6)ccnc5O)[nH]c4cc3C2=O)CC1 [compound 76],IC50,Ba/F3,0.5 to 5 µM
same,IC50,K562,0.5 to 5 µM
same,IC50,IGF1R tyrosine kinase,0.5 to 5 µM
same,IC50,InsR,0.5 to 5 µM
same,IC50,Jak2,0.5 to 5 µM
same,IC50,Alk,0.5 to 5 µM
same,IC50,Karpas-299,0.5 to 5 µM
CCN(CC)C(=O)c1ccc(OC[C@H](O)CNc2ccnc(O)c2-c2nc3cc4c(cc3[nH]2)C(=O)N(C2CCN(C)CC2)C4=O)c(OC)c1 [compound 51],IC50,Ba/F3,> 15 µM
same,IC50,K562,> 15 µM
same,IC50,IGF1R tyrosine kinase,> 15 µM
same,IC50,InsR,> 15 µM
same,IC50,Jak2,> 15 µM
same,IC50,Alk,> 15 µM
same,IC50,Karpas-299,> 15 µM
CN1CCC(N2C(=O)c3cc4nc(-c5c(NC[C@@H](O)COc6cccc7c6OC(F)(F)C(F)O7)cc[nH]c5=O)[nH]c4cc3C2=O)CC1 (stereo partly drawn) [compound 83],IC50,Ba/F3,> 15 µM
same,IC50,K562,> 15 µM
same,IC50,IGF1R tyrosine kinase,< 0.5 µM
same,IC50,InsR,< 0.5 µM
same,IC50,Jak2,0.5 to 5 µM
same,IC50,Alk,0.5 to 5 µM
same,IC50,Karpas-299,> 15 µM
Cc1ccc(OCC(O)CNc2ccnc(O)c2-c2nc3cc4c(cc3[nH]2)C(=O)N(CC(C)(C)CN(C)C)C4=O)c(C)c1 (stereo not drawn) [compound 62],IC50,Ba/F3,5 to 15 µM
same,IC50,K562,0.5 to 5 µM
same,IC50,IGF1R tyrosine kinase,< 0.5 µM
same,IC50,InsR,0.5 to 5 µM
same,IC50,Jak2,5 to 15 µM
same,IC50,Alk,5 to 15 µM
same,IC50,Karpas-299,5 to 15 µM
COc1cc(C#N)ccc1OC[C@H](O)CNc1ccnc(O)c1-c1nc2cc3c(cc2[nH]1)C(=O)N(C1CCN(C)CC1)C3=O [compound 50],IC50,Ba/F3,> 15 µM
same,IC50,K562,> 15 µM
same,IC50,IGF1R tyrosine kinase,0.5 to 5 µM
same,IC50,InsR,5 to 15 µM
same,IC50,Jak2,0.5 to 5 µM
same,IC50,Alk,5 to 15 µM
same,IC50,Karpas-299,> 15 µM
Cc1ccc(OC[C@H](O)CNc2ccnc(O)c2-c2nc3cc4c(cc3[nH]2)C(=O)N(C2CCN(C)CC2)C4=O)c2c1CCC2 [compound 85],IC50,Ba/F3,0.5 to 5 µM
same,IC50,K562,0.5 to 5 µM
same,IC50,IGF1R tyrosine kinase,< 0.5 µM
same,IC50,InsR,< 0.5 µM
same,IC50,Jak2,0.5 to 5 µM
same,IC50,Alk,0.5 to 5 µM
same,IC50,Karpas-299,0.5 to 5 µM
CC(C)CNCC(O)CNc1ccnc(O)c1-c1nc2cc3c(cc2[nH]1)C(=O)N(C1CCN(C)CC1)C3=O (stereo not drawn) [compound 66],IC50,Ba/F3,> 15 µM
same,IC50,K562,> 15 µM
same,IC50,IGF1R tyrosine kinase,> 15 µM
same,IC50,InsR,> 15 µM
same,IC50,Jak2,> 15 µM
same,IC50,Alk,> 15 µM
same,IC50,Karpas-299,> 15 µM
CSCc1cc(C)cc(C)c1OC[C@H](O)CNc1cc[nH]c(=O)c1-c1nc2cc3c(cc2[nH]1)C(=O)N(C1CCN(C)CC1)C3=O [compound 81],IC50,Ba/F3,5 to 15 µM
same,IC50,K562,> 15 µM
same,IC50,IGF1R tyrosine kinase,0.5 to 5 µM
same,IC50,InsR,5 to 15 µM
same,IC50,Jak2,5 to 15 µM
same,IC50,Alk,0.5 to 5 µM
same,IC50,Karpas-299,5 to 15 µM
COc1cc(F)ccc1OC[C@H](O)CNc1ccnc(O)c1-c1nc2cc3c(cc2[nH]1)C(=O)N(C1CCN(C)CC1)C3=O [compound 57],IC50,Ba/F3,0.5 to 5 µM
same,IC50,K562,5 to 15 µM
same,IC50,IGF1R tyrosine kinase,0.5 to 5 µM
same,IC50,InsR,0.5 to 5 µM
same,IC50,Jak2,0.5 to 5 µM
same,IC50,Alk,0.5 to 5 µM
same,IC50,Karpas-299,5 to 15 µM

# — patent publication US8063225B2, “Tricyclic compound derivatives useful in the treatment of neoplastic diseases, inflammatory disorders and immunomodulatory disorders” (Chembridge Corporation, priority 2006, dated 2011)
